# Data published in patent US9302993B2, “8-hydroxy quinoline derivatives” (PRANA BIOTECHNOLOGY LIMITED, priority 2002, dated 2016).
# Where “and” joins values, the source holds several entries; their conditions need not be identical. Equal entries are not always repeated. Where two headings read alike, the source gives them in different places.
# Key:
# [1] = Turbidimetric solubility measurements (Assay 13); format: physicochemical; conditions: kinetic from dmso stock, 1% DMSO, nephelometry
# Experimental: Turbidimetric Solubility Measurements
# The solubility estimate was measured at both pH 2.0 and pH 6.5. This is within the pH range that can be anticipated along the proximal gastrointestinal tract in humans.
# The compounds were dissolved in DMSO to appropriate concentrations and then spiked into either 0.01M HCl (approx. pH=2.0) or pH 6.5 isotonic phosphate buffer, the final DMSO concentration being 1%. Samples were then analysed via Nephelometry to determine a solubility range. [as per D. Bevan and R. S. Lloyd, Anal. Chem. 2000, 72, 1781-1787].
# [2] = system: APP2576 transgenic mouse; experiment: Effect of administration of test compounds on Aβ deposits in transgenic animals (Assay 11); format: in vivo; parameters: concentration or dose not given beside the values; conditions: transgenic mouse brains; for Insoluble fraction. % change compared with control.: insoluble Aβ; for Soluble fraction. % change compared with control.: soluble Aβ
# [3] = system: APP2576 transgenic mouse; experiment: Transgenic mouse brain immunohistochemistry, plaque abundance (Assay 15); format: in vivo; conditions: for % difference from control (sham treated animal): plaque score; for Mean plaque score: scale 0 to 4
# Description: Assay 15. Transgenic Mouse Brain Immunohistochemistry
# The APP2576 transgenic mouse (Hsiao et al., 1996) as referred to in Assay 11 were utilized in this assay. The contralateral formalin-fixed mouse brain tissue was coronally cut. Sections (10 μm) were taken from the corresponding sites and treated with 80% formic acid for antigen retrieval. The primary antibody used was monoclonal antibody 1E8, which recognizes epitopes between residues 18 and 22 of Aβ (SmithKline Beecham, UK). Immunoreactivity was developed with secondary antibody linked to horseradish peroxidase (using a 3,39-diaminobenzidinechromagen) (Dako) and alkaline phosphatase (using 5-bromo-4-chloro 3-indoxyl phosphate and nitroblue tetrazolium chloride chromagen) (Dako). Plaque abundance per section was assessed by two operators blinded to treatment according to the following scale:
# 1=plaques present but very sparse
# 2=several plaques present
# 3=numerous plaques visible in restricted areas
# 4=plaques abundant and not restricted to any particular area.
# Intermediate values eg 2.5 were assigned where applicable.
# Students' t ‘test was used for comparisons between groups.
# [4] = Pharmacokinetic profile, IV and oral (Assay 16); format: in vivo; conditions: rat; for BA (%): oral, calculated using the truncated AUC; for clearance: read-out: Cltotal (mL/min/Kg), total plasma clearance
# Experimental: Assay 16. Pharmacokinetic Profile
# • Intravenous infusion of PBT-1033; 2 mg/Kg (1 mL of a 0.5 mg/mL solution in 7.5% DMSO with 0.1 m Captisol in Citrate Buffer adjusted to pH 3.0) was administered over 5 minutes to 2 rats and arterial blood was sampled up to 24 hours. • Oral administration of PBT-1033; 30 mg/Kg (as a suspension in CMC-SSV*) via administered via oral gavage to 2 rats and arterial blood was sampled up to 26 hours. * Standard Suspending Vehicle—0.5% w/v Na-Carboxymethyl Cellulose (CMC), 5% v/v benzyl alcohol, 4% v/v Tween 80 in 0.9% NaCl. • Plasma concentrations of PBT-1033 were determined by LCMS (LOQ 3.7 nM). For rat 020710-D, an overlapping peak was present for PBT-1033.
# [formula] [formula] [formula] Calculations: • CLtotal=total plasma clearance after IV administration • Vdβ=volume of distribution during the elimination phase after IV administration • BA=oral bioavailability • AUCIV=area under the plasma concentration versus time profile from time zero to infinity after IV administration • AUCoral=area under the plasma concentration versus time profile from time zero to infinity after oral administration • β=terminal elimination rate constant after IV administration • The results are shown in FIG. 4(a). (b) PBT-1038 • Intravenous infusion of PBT-1038; (0.5 mg/Kg in 7.5% DMSO in Citrate Buffer pH 3.0) was administered over 5 minutes to 2 rats and arterial blood was sampled up to 24 hours. • Oral administration of PBT-1038; (30 mg/Kg as a 0.05% CMC suspension) via administered via oral gavage to 2 rats and arterial blood was sampled up to 24 hours. • Plasma concentrations of PBT-1038 were determined by MS (LOQ 3 nM)
# (c) PBT-1050 • Intravenous infusion of PBT-1050; (2 mg/Kg in 7.5% DMSO in Citrate Buffer pH 3.0) was administered over 5 minutes to 2 rats and arterial blood was sampled up to 24 hours. • Oral administration of PBT-1050; (30 mg/Kg as a 0.05% CMC suspension) was administered via oral gavage to 2 rats and arterial blood was sampled up to 24 hours. • Plasma concentrations of PBT-1050 were determined by MS (LOQ 3 nM)
# (d) PBT-1051 • Intravenous infusion of PBT-1051; 2 mg/Kg (1 mL of a 0.6 mg/mL solution in 7.5% DMSO in Citrate Buffer pH 3.0) was administered over 5 minutes to 2 rats and arterial blood was sampled up to 24 hours. • Oral administration of PBT-1051; 30 mg/Kg (as a suspension in CMC-SSV*) was administered via oral gavage to 2 rats and arterial blood was sampled up to 24 hours. * Standard Suspending Vehicle—0.5% w/v Na-Carboxymethyl Cellulose (CMC), 5% v/v benzyl alcohol, 4% v/v Tween 80 in 0.9% NaCl. • Plasma concentrations of PBT-1051 were determined by LCMS (LOQ 3.7 nM)
# [5] = E Log D, chromatographic method (Assay 13); format: physicochemical; conditions: SUPELCOSIL LC-ABZ column with octanol saturated mobile phase, pH 7.4; read-out: E Log D7.4
# Experimental: Effective Log D values were measured using a chromatographic method employing a SUPELCOSIL LC-ABZ column using an octanol saturated mobile phase at pH 7.4.
# [6] = aqueous buffer, pH 6.5 isotonic phosphate buffer, read-out: Solubility pH 6.5
# [7] = simulated gastric fluid, 0.01M HCl (approx. pH 2.0), read-out: Solubility (μg/mL) 0.01M HCl
# [8] = IV, individual rats, listed as PBT 1033, hydrochloride
# [9] = PO 30 mg/Kg, individual rats, listed as PBT 1033, hydrochloride, 30 mg/kg
# [10] = plasma, po, 30 mg/kg, PO 30 mg/Kg, Mean ± SD
# [11] = plasma, po, 30 mg/kg, PO 30 mg/Kg, Mean ± SD, read-out: Tmax (converted)
# [12] = plasma, po, 30 mg/kg, PO 30 mg/Kg, individual rats
# [13] = plasma, po, 30 mg/kg, PO 30 mg/Kg, individual rats, read-out: Tmax (converted)
# [14] = PO 30 mg/Kg, individual rats, listed as PBT 1050, 30 mg/kg
# [15] = IV, individual rats, listed as PBT 1051, hydrochloride
# [16] = PO 30 mg/Kg, individual rats, listed as PBT 1051, hydrochloride, 30 mg/kg
SMILES,"solubility [1, 6] [µg/mL]","solubility [1, 7] [µg/mL]",Insoluble fraction. % change compared with control. [2] [%],Soluble fraction. % change compared with control. [2],% difference from control (sham treated animal) [3] [%],Mean plaque score [3],"VdB ([4]; IV, Mean ± SD) [L/kg]",BA (%) ([4]; Mean ± SD),"Cmax ([4]; plasma, iv, 2 mg/kg, Mean ± SD) [µM]","Cmax [4, 10] [µM]","Tmax [4, 11] [min]","Cmax [4, 12] [µM]","Tmax [4, 13] [min]",chromatographic logD [5],"Cmax ([4]; plasma, iv, Mean ± SD) [µM]",also measured
"CN(C)Cc1ccc2c(Cl)cc(Cl)c(O)c2n1.Cl [compound 1033, 5,7-Dichloro-2-dimethylaminomethyl-quinolin-8-ol hydrochloride]",3.1 to 6.2,< 3.1,−29,−37%,−41,2.06,9.03 ± 3.07,25.25 ± 0.29,1.59 ± 1.26,1.69 ± 0.47,52.5,2.02,45,1.32,–,"Cltotal (mL/min/Kg), total plasma clearance [4, 8]: 145.69 mL/min/kg; Cmax [4, 8]: 0.7 µM and 2.48 µM; Tmax [4, 8]: 20 min and 5 min; VdB [4, 8]: 6.86 L/kg and 11.20 L/kg; t1/2 [4, 8]: 53.29 min; Cmax [4, 9]: 1.36 µM; Tmax [4, 9]: 60 min; BA (%) ([4]; individual rats, listed as PBT 1033, hydrochloride): 25.45% and 25.04%; clearance ([4]; plasma, iv, 2 mg/kg, IV, Mean ± SD): 118 ± 38.7 mL/min/kg; Tmax ([4]; plasma, iv, 2 mg/kg, IV, Mean ± SD, read-out: Tmax (converted)): 12.5 min; clearance ([4]; plasma, iv, 2 mg/kg, IV, individual rats): 91 mL/min/kg; half-life ([4]; plasma, iv, 2 mg/kg, Mean ± SD): 52.8 ± 0.73 min; half-life ([4]; plasma, iv, 2 mg/kg, individual rats): 52.2 min"
"O=C(NCCc1c[nH]cn1)c1ccc2c(Cl)cc(Cl)c(O)c2n1 [compound 1038, 5,7-Dichloro-8-hydroxyquinoline-2-carboxylic acid [2-(1H-imidazol-4-yl)-ethyl]-amide]",12.5 to 25,3.1 to 6.2,−37,negligible,−17,3.0,–,–,–,63.1 ± 7.57,45,57.8,45,2.92,5.45 ± 3.7,"Cmax ([4]; IV, individual rats, listed as PBT 1038): 8.06 µM and 2.84 µM; Tmax ([4]; PO 30 mg/Kg, individual rats): 45 min; Cmax ([4]; PO 30 mg/Kg, individual rats, listed as PBT 1038, 30 mg/kg): 68.5 µM"
"Cn1cnc(CCNC(=O)c2ccc3c(Cl)cc(Cl)c(O)c3n2)c1 [compound 1050, 5,7-dichloro-8-hydroxyquinoline-2-carboxylic acid [2-(1-methyl-1H-imidazol-4-yl)-ethyl]-amide]",12.5 to 25,25 to 50,–,–,–,–,–,–,25.4 ± 12.1,34 ± 38.2,82.5,–,–,2.98,–,"Cmax ([4]; IV, individual rats, listed as PBT 1050): 33.9 µM and 16.9 µM; Cmax [4, 14]: 61 µM and 7.03 µM; Tmax [4, 14]: 45 min and 120 min"
"CCNCc1ccc2c(Cl)cc(Cl)c(O)c2n1.Cl [compound 1051, 5,7-dichloro-2-ethylaminomethyl-quinolin-8-ol hydrochloride]",< 3.1,< 3.1,−21,negligible,−39,2.13,9.64 ± 0.77,27.75 ± 14.43,–,2.34 ± 1.18,45,–,60,2.64,2.99 ± 0.05,"Cltotal (mL/min/Kg), total plasma clearance [4, 15]: 135.58 mL/min/kg; Cmax [4, 15]: 3.03 µM; VdB [4, 15]: 10.19 L/kg and 9.10 L/kg; t1/2 [4, 15]: 46.52 min; Cmax [4, 16]: 3.18 µM and 1.5 µM; Tmax [4, 16]: 30 min; t1/2 [4, 16]: 365.72 min; BA (%) ([4]; individual rats, listed as PBT 1051, hydrochloride): 37.96% and 17.55%; clearance ([4]; plasma, iv, 2 mg/Kg, IV, Mean ± SD): 144 ± 12.5 mL/min/kg; clearance ([4]; plasma, iv, 2 mg/Kg, IV, individual rats): 153 mL/min/kg; half-life ([4]; plasma, iv, 2 mg/Kg, Mean ± SD): 46.3 ± 0.32 min; half-life ([4]; plasma, iv, 2 mg/Kg, individual rats): 46.1 min; Cmax ([4]; plasma, iv, individual rats): 2.96 µM; half-life [4, 10]: 283 ± 117 min; half-life [4, 12]: 200 min"
